We go through seven compounds from article doi:10.1101/2024.05.30.596569v1 (bioRxiv, 2024).

≈ marks a conversion by molar mass, not a printed value. A value given as a limit tells only on which side of the number the result lay.

The test system of one data set is P. aeruginosa strains. The following applies: cited from earlier work.
A further data set relates to A. baumannii ATCC 19606. The following applies: Mueller Hinton II broth, 5 × 10^5 cells mL^−1, 18h, turbidity 600 nm, triplicate.
Another data set has as its system E.c K0416. Description: microbe, parasite or virus in culture. To be noted: Escherichia coli, K0416, read-out: Minimum inhibitory concentration, E.c K0416.
The test system of the next data set is E.c ATCC25922 ΔTolC. The following applies: Table S3, triplicate.
The conditions of data set [1]: pH 7.4.

Take murepavadin: the “MIC90 against P. aeruginosa strains” value with P. aeruginosa strains is 0.12 mg/L.

As to `C[C@@H](O)[C@H](NC(=O)[C@H]1NC(=O)[C@H]([C@@H](C)O)NC(=O)[C@H]2NC(=O)[C@H](CC(N)=O)NC(=O)[C@@H](N)Cc3c[nH]c4c(cccc34)OC2c2c[nH]c3cc(ccc23)C1CCCN)C(=O)N[C@@H](Cc1ccccc1)C(=O)O` (stereo partly drawn) [WNWTKTF], the “Minimum inhibitory concentration, Ab ATCC 19606” value in the data set on A. baumannii ATCC 19606 is on record as “no activity against A. baumannii”.

Take `CC(C)NCC(O)COc1cccc2ccccc12` (stereo not drawn) [Propranolol]: in the data set on Caco-2 cells, the “A-B permeability (Caco-2)” value is on record as 38.0 10^-6 cm s^-1 and the “B-A permeability (Caco-2)” value was 17.2 10^-6 cm s^-1.

Take `CC(C)(O/N=C(\C(=O)N[C@@H]1C(=O)N2C(C(=O)[O-])=C(C[n+]3ccccc3)CS[C@H]12)c1csc(N)n1)C(=O)O` [CZA, ceftazidime]: the MIC with E.c K0416 turned out to be 64 mg/L (≈ 117 µM).

As to `O=C(O)c1cn(C2CC2)c2cc(N3CCNCC3)c(F)cc2c1=O` [CIP, ciprofloxacin], the MIC in the data set with E.c K0416 is > 0.5 mg/L.

As to `CNC(C)C1CCC(N)C(OC2C(N)CC(N)C(OC3OCC(C)(O)C(NC)C3O)C2O)O1` (stereo not drawn) [GEN, gentamicin], in the data set with E.c ATCC25922 ΔTolC, the “Minimum inhibitory concentration, E.c ATCC25922 ΔTolC” value stood at 0.5 mg/L (≈ 1.05 µM). The MIC in the data set with E.c K0416 is 4 mg/L (≈ 8.38 µM).

As to `CO[C@H]1/C=C/O[C@@]2(C)Oc3c(C)c(O)c4c(O)c(c(/C=N/N5CCN(C)CC5)c(O)c4c3C2=O)NC(=O)/C(C)=C\C=C\[C@H](C)[C@H](O)[C@@H](C)[C@@H](O)[C@@H](C)[C@H](OC(C)=O)[C@@H]1C` [Rifampicin], in data set [1], the “Distribution coefficient (log D), logD7.4” value was found to be 1.12.
